Patent US20050101595A1, “N-containing cycloalkyl-substituted amino-thiazole derivatives and pharmaceutical compositions for inhibiting cell proliferation and methods for their use” (PFIZER INC., priority 2003, published 2005)
Counter-ions that a name gives are not always drawn. Like-named read-outs stand apart in the source and are kept apart here.

Columns and labels:
CDK2/Cyclin A = CDK2/Cyclin A (Homo sapiens, UniProt P24941); assay: Inhibition of CDK2/Cyclin A Retinoblastoma Kinase Activity; format: biochemical; details: for Ki: apparent Ki, CDK2/proteolyzed cyclin A, Rb fragment substrate, 25 μM ATP; for CDK2 % Inhibition At 0.03 μM: Table 2
Summary of the method: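 CDK2 (10 or 19 nM), insect-cell expressed, gel-filtration purified with truncated cyclin A; Rb fragment substrate; 25 μM ATP; 10 mM HEPES pH 7.4, 10 mM MgCl2; 30° C, 60 or 75 min; EDTA stop; phosphocellulose/nitrocellulose capture, phosphorimager. % inhibition vs DMSO control, no-enzyme background subtracted.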

[1] = biological target: human CDK4 and genetically truncated (1-264) cyclin D3 (Homo sapiens, UniProt P11802); assay: Inhibition of CDK4/Cyclin D Retinoblastoma Kinase Activity; format: biochemical; details: for Ki: apparent Ki, CDK4/truncated cyclin D3, Rb fragment substrate, 25 μM ATP
Sequence of human CDK4 and genetically truncated (1-264) cyclin D3 (P11802 whole entry, the tested form may be a part): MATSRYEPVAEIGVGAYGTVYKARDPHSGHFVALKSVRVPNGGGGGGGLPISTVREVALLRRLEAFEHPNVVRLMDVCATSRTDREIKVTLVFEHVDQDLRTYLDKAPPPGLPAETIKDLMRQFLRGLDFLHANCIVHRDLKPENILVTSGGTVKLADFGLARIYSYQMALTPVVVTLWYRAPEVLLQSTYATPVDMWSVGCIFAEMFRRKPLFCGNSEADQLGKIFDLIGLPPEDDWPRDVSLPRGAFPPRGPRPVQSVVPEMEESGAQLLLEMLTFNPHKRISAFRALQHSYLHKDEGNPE
Sequence of human CDK4 and genetically truncated (1-264) cyclin D3 (P30281 1-264 partner): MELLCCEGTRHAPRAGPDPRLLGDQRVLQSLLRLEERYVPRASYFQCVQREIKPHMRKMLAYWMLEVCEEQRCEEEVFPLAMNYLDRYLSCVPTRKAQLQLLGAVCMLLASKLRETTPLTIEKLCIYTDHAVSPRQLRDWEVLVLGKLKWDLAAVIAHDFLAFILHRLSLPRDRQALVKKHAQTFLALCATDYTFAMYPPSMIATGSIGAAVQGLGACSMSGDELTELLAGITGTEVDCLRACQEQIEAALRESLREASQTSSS
Summary of the method: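 The enzyme complex (5 nM), expressed in co-infected insect cells, was incubated with recombinant Rb fragment, 25 μM radiolabelled ATP and 2% DMSO at 30 °C. Reactions were stopped with EDTA after 20 minutes, or 60 minutes for tight-binding inhibitors. Apparent Ki values came from competitive inhibition fits.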

HCT-116 cell line = assay: Inhibition of cell growth, tetrazolium salt (MTT) assay; format: cell-based; details: for HCT-116 % Inhibition at 0.25 μM: 0.25 μM compound; for IC50: Homo sapiens, HCT-116, 120 h, MTT, three to five days, read-out: HCT-116 IC50
Summary of the method: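 MTT colorimetric viability: three-to-five-day compound exposure in 0.5% (v/v) DMSO at 37° C, MTT 0.2 mg/mL for the last 4 h, A540 compared with vehicle-treated cells.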

[2] = 0.1 μM compound, HCT-116, Table 3

COC(=O)CCC(=O)N1CCC(Nc2nc(N)c(C(=O)c3c(F)cccc3F)s2)CC1 [Example Q49]
CDK2 % Inhibition at 0.03 μM (CDK2/Cyclin A; 0.03 μM compound, Table 4): 16%
CDK4 % Inhibition at 0.03 μM ([1]; 0.03 μM compound, Table 4): 24%
HCT-116 % Inhibition at 0.1 μM (HCT-116 cell line; 0.1 μM compound, HCT-116, Table 4): 0%
HCT-116 % Inhibition at 0.25 μM (HCT-116 cell line; HCT-116, Table 4): 28%

Nc1nc(NC2CCN(S(=O)(=O)c3c(Cl)cc(C(F)(F)F)cc3Cl)CC2)sc1C(=O)c1c(F)cccc1F [Example P82]
CDK2 % Inhibition at 0.03 μM (CDK2/Cyclin A; 0.03 μM compound, Table 3): −23%
CDK4 % Inhibition at 0.03 μM ([1]; 0.03 μM compound, Table 3): 12%
HCT-116 % Inhibition at 0.1 μM (HCT-116 cell line; [2]): 17%
HCT-116 % Inhibition at 0.25 μM (HCT-116 cell line; HCT-116, Table 3): 24%

Nc1nc(NC2CCN(S(=O)(=O)c3ccc(CN4CCCC4)cc3)CC2)sc1C(=O)c1c(F)cccc1F [Example J6, 1-{4-Amino-2-[1-(4-pyrrolidin-1-ylmethyl-benzenesulfonyl)-piperidin-4-ylamino]-thiazol-5-yl}-1-(2,6-difluoro-phenyl)-methanone Hydrochloride]
Ki (CDK2/Cyclin A): < 1 nM
Ki [1]: 0.58 nM
IC50 (HCT-116 cell line; first HCT-116 column (c4)): 390 nM
IC50 (HCT-116 cell line; second HCT-116 column (c5)): 2000 nM

CC(NC(=O)N1CCC(Nc2nc(N)c(C(=O)c3c(F)cccc3F)s2)CC1)c1cccc2ccccc12 (stereo not shown) [Example O67]
CDK2 % Inhibition At 0.03 μM (CDK2/Cyclin A; 0.03 μM compound): 31%
CDK4 % Inhibition at 0.03 μM ([1]; 0.03 μM compound, Table 2): 8%
HCT-116 % Inhibition at 0.25 μM (HCT-116 cell line; HCT-116, Table 2): 50%

Nc1nc(NC2CCN(S(=O)(=O)c3ccc(-c4nnn[nH]4)cc3)CC2)sc1C(=O)c1c(F)cccc1F [Example J4, 1-(4-Amino-2-{1-[4-(1H-tetrazol-5-yl)-benzenesulfonyl]-piperidin-4ylamino}-thiazol-5-yl)-1-(2,6-difluoro-phenyl)-methanone Trifluoroacetic Acid Salt]
Ki (CDK2/Cyclin A): < 1 nM
Ki [1]: 1.7 nM
IC50 (HCT-116 cell line; first HCT-116 column (c4)): > 5000 nM
IC50 (HCT-116 cell line; second HCT-116 column (c5)): > 5000 nM

COc1ccc(NC(=O)N2CCC(Nc3nc(N)c(C(=O)c4c(F)cccc4F)s3)CC2)c(OC)c1 [Example O8]
CDK2 % Inhibition At 0.03 μM (CDK2/Cyclin A; 0.03 μM compound): 37%
CDK4 % Inhibition at 0.03 μM ([1]; 0.03 μM compound, Table 2): 15%
HCT-116 % Inhibition at 0.25 μM (HCT-116 cell line; HCT-116, Table 2): 0%

Cc1cc(C)c(S(=O)(=O)N2CCC(Nc3nc(N)c(C(=O)c4c(F)cccc4F)s3)CC2)c(C)c1 [Example P10]
CDK2 % Inhibition at 0.03 μM (CDK2/Cyclin A; 0.03 μM compound, Table 3): −14%
CDK4 % Inhibition at 0.03 μM ([1]; 0.03 μM compound, Table 3): 11%
HCT-116 % Inhibition at 0.1 μM (HCT-116 cell line; [2]): 14%
HCT-116 % Inhibition at 0.25 μM (HCT-116 cell line; HCT-116, Table 3): 35%

Nc1nc(NC2CCN(C(=O)NCCCl)CC2)sc1C(=O)c1c(F)cccc1F [Example O32]
CDK2 % Inhibition At 0.03 μM (CDK2/Cyclin A; 0.03 μM compound): 30%
CDK4 % Inhibition at 0.03 μM ([1]; 0.03 μM compound, Table 2): 12%
HCT-116 % Inhibition at 0.25 μM (HCT-116 cell line; HCT-116, Table 2): 99%

CCCc1c(C(=O)N2CCC(Nc3nc(N)c(C(=O)c4c(F)cccc4F)s3)CC2)cnn1-c1ccccc1 [Example R71]
CDK2 % Inhibition at 0.03 μM (CDK2/Cyclin A; at 0.03 μM): 33%
CDK4 % Inhibition at 0.03 μM ([1]; at 0.03 μM): 51%
HCT-116 % Inhibition at 0.1 μM (HCT-116 cell line; HCT-116 cells, at 0.1 μM): 0%
HCT-116 5 Inhibition at 0.25 μM (HCT-116 cell line; HCT-116 cells): 44

Nc1nc(NC2CCN(C(=O)CSc3ccccc3)CC2)sc1C(=O)c1c(F)cccc1F [Example R32]
CDK2 % Inhibition at 0.03 μM (CDK2/Cyclin A; at 0.03 μM): 38%
CDK4 % Inhibition at 0.03 μM ([1]; at 0.03 μM): 65%
HCT-116 % Inhibition at 0.1 μM (HCT-116 cell line; HCT-116 cells, at 0.1 μM): 0%
HCT-116 5 Inhibition at 0.25 μM (HCT-116 cell line; HCT-116 cells): 48

Cn1cnc(-c2ccc(S(=O)(=O)N3CCC(Nc4nc(N)c(C(=O)c5c(F)cccc5F)s4)CC3)cn2)c1 [Example I5, Hydrochloride]
Ki (CDK2/Cyclin A): 5.1 nM
Ki [1]: 0.67 nM
IC50 (HCT-116 cell line; first HCT-116 column (c4)): 80 nM
IC50 (HCT-116 cell line; second HCT-116 column (c5)): 500 nM

CC(=O)Oc1ccccc1C(=O)N1CCC(Nc2nc(N)c(C(=O)c3c(F)cccc3F)s2)CC1 [Example R113]
CDK2 % Inhibition at 0.03 μM (CDK2/Cyclin A; at 0.03 μM): 44%
CDK4 % Inhibition at 0.03 μM ([1]; at 0.03 μM): 48%
HCT-116 % Inhibition at 0.1 μM (HCT-116 cell line; HCT-116 cells, at 0.1 μM): 0%
HCT-116 5 Inhibition at 0.25 μM (HCT-116 cell line; HCT-116 cells): 40

CC[C@@H](NCCS(=O)(=O)N1CCC(Nc2nc(N)c(C(=O)c3c(F)cccc3F)s2)CC1)c1ccccc1 [Example K46, (4-Amino-2-{1-[2-(1 R-phenyl-propylamino)-ethanesulfonyl]-piperidin-4-ylamino}-thiazol-5-yl)-(2,6-difluoro-phenyl)-methanone]
Ki (CDK2/Cyclin A): 0.81 nM
Ki [1]: 2.1 nM
IC50 (HCT-116 cell line; first HCT-116 column (c4)): 130 nM
IC50 (HCT-116 cell line; second HCT-116 column (c5)): 260 nM

CCOC(=O)CC[C@H](NC(=O)N1CCC(Nc2nc(N)c(C(=O)c3c(F)cccc3F)s2)CC1)C(=O)OCC [Example O80]
CDK2 % Inhibition At 0.03 μM (CDK2/Cyclin A; 0.03 μM compound): 23%
CDK4 % Inhibition at 0.03 μM ([1]; 0.03 μM compound, Table 2): 15%
HCT-116 % Inhibition at 0.25 μM (HCT-116 cell line; HCT-116, Table 2): 46%

CC1(C)CN(c2ccc(S(=O)(=O)N3CCC(Nc4nc(N)c(C(=O)c5c(F)cccc5F)s4)CC3)cn2)C=N1 [Example G21, 1-(4-Amino-2-{1-[6-(4,4-dimethyl-4,5-dihydro-imidazol-1-yl)-pyridine-3-sulfonyl]-piperidin-4-ylamino}-thiazol-5-yl)-1-(2,6-difluoro-phenyl)-methanone]
Ki (CDK2/Cyclin A): < 1 nM
Ki [1]: 0.68 nM
IC50 (HCT-116 cell line; first HCT-116 column (c4)): 1900 nM
IC50 (HCT-116 cell line; second HCT-116 column (c5)): > 5000 nM

Cc1cc(C(=O)N2CCC(Nc3nc(N)c(C(=O)c4c(F)cccc4F)s3)CC2)ccc1Cl [Example D7, 1-(4-Amino-2-{1-[1-(4-chloro-3-methyl-phenyl)-methanoyl]-piperidin-4-ylamino}-thiazol-5-yl)-1-(2,6-difluoro-phenyl)-methanone]
Ki (CDK2/Cyclin A): 100 nM
Ki [1]: 32 nM
IC50 (HCT-116 cell line; first HCT-116 column (c4)): 7.2 nM
IC50 (HCT-116 cell line; second HCT-116 column (c5)): 220 nM

Nc1nc(NC2CCN(S(=O)(=O)c3ccc(Sc4ccccn4)nc3)CC2)sc1C(=O)c1c(F)cccc1F [Example L2, 1-(4-Amino-2-{1-[6-(pyridin-2-ylsulfanyl)-pyridine-3-sulfonyl]-piperidin-4-ylamino}-thiazol-5-yl)-1-(2,6-difluoro-phenyl)-methanone Dihydrochloride.]
Ki (CDK2/Cyclin A): 1.5 nM
Ki [1]: 2.7 nM
IC50 (HCT-116 cell line; first HCT-116 column (c4)): > 500 nM
IC50 (HCT-116 cell line; second HCT-116 column (c5)): > 500 nM

CC(C)OC(=O)NS(=O)(=O)N1CCC(Nc2nc(N)c(C(=O)c3c(F)cccc3F)s2)CC1 [Example E5, [1-(4-{4-Amino-5-[1-(2,6-difluoro-phenyl)-methanoyl]-thiazol-2-ylamino}-piperidin-1-yl)-sulfonyl]-carbamic Acid Isopropyl Ester]
Ki (CDK2/Cyclin A): 38 nM
Ki [1]: 170 nM
IC50 (HCT-116 cell line; first HCT-116 column (c4)): > 5000 nM
IC50 (HCT-116 cell line; second HCT-116 column (c5)): > 5000 nM

CS(=O)(=O)N1CCCC(Nc2nc(N)c(C(=O)c3c(F)cccc3F)s2)C1 (stereo not shown) [Example F37, [4-Amino-2-(1-methanesulfonyl-piperidin-3-ylamino)-thiazol-5-yl]-(2,6-difluoro-phenyl)-methanone]
Ki (CDK2/Cyclin A): 430 nM
Ki [1]: 1100 nM
IC50 (HCT-116 cell line; first HCT-116 column (c4)): 700 nM
IC50 (HCT-116 cell line; second HCT-116 column (c5)): 1500 nM

Nc1nc(NC2CCN(C(=O)c3cccc([N+](=O)[O-])c3)CC2)sc1C(=O)c1c(F)cccc1F [Example C12, 1-(4-Amino-2-{1-[1-(3-nitro-phenyl)-methanoyl]-piperidin-4-ylamino}-thiazol-5-yl)-1-(2,6-difluoro-phenyl)-methanone]
Ki (CDK2/Cyclin A): 59 nM
Ki [1]: 12 nM
IC50 (HCT-116 cell line; first HCT-116 column (c4)): 220 nM
IC50 (HCT-116 cell line; second HCT-116 column (c5)): 510 nM

Nc1nc(NC2CCN(S(=O)(=O)CCCc3nnn[nH]3)CC2)sc1C(=O)c1c(F)cccc1F [Example K18, 1-(4-Amino-2-{1-[3-(1H-tetrazol-5-yl)-propane-1-sulfonyl]-piperidin-4-ylamino}-thiazol-5-yl)-1-(2,6-difluoro-phenyl)-methanone.]
Ki (CDK2/Cyclin A): 3.1 nM
Ki [1]: 18 nM
IC50 (HCT-116 cell line; first HCT-116 column (c4)): > 5000 nM
IC50 (HCT-116 cell line; second HCT-116 column (c5)): > 5000 nM

CN(C)CC(=O)N1CCC(Nc2nc(N)c(C(=O)c3c(F)cccc3F)s2)CC1 [Example D2, (4-[4-Amino-5-(2,6-difluoro-benzoyl)-thiazol-2-ylamino}-piperidin-1-yl)-2-dimethylamino-ethanone]
Ki (CDK2/Cyclin A): 1300 nM
Ki [1]: 120 nM
IC50 (HCT-116 cell line; first HCT-116 column (c4)): 1900 nM
IC50 (HCT-116 cell line; second HCT-116 column (c5)): 5000 nM

Cc1onc(-c2c(Cl)cccc2Cl)c1C(=O)N1CCC(Nc2nc(N)c(C(=O)c3c(F)cccc3F)s2)CC1 [Example R26]
CDK2 % Inhibition at 0.03 μM (CDK2/Cyclin A; at 0.03 μM): 17%
CDK4 % Inhibition at 0.03 μM ([1]; at 0.03 μM): 64%
HCT-116 % Inhibition at 0.1 μM (HCT-116 cell line; HCT-116 cells, at 0.1 μM): 0%
HCT-116 5 Inhibition at 0.25 μM (HCT-116 cell line; HCT-116 cells): 46
